Like-named read-outs stand apart in the source and are kept apart here.
Columns and labels:
[1] = oxidized form; literature values (footnotes a, c, d); cited from earlier work
[2] = tested on: PA14; test: Redox cycles over 7 days and support of survival (Table 4); type: cell-based, P. aeruginosa
Description: (§1) Phenazines and other redox active compound in the sense of the disclosure can be further characterized by various electrical properties such as a standard electrode potential E° vs. NHE of −500 mV to 500 mV and other properties such as number of redox cycle over a certain period of time (e.g. number of days) as ability to support survival and susceptibility to reduction by enzymes and/or bacterial strains.

[3] = tested on: PA14; test: Reduction of redox-active compound by PA14 (Table 4); type: cell-based, P. aeruginosa
Description: as §1

[4] = Standard electrode potential E0' vs NHE of exemplary redox-active compounds (Table 4); type: physicochemical; conditions: measured in aqueous solution at pH 7 in this study (footnote b)
Description: as §1

[5] = vs NHE at pH7; cited from earlier work
[6] = tested on: Δphz* biofilms; test: Anoxic survival (CFU) of electrode-attached phenazine-deficient biofilms at poised potential; type: cell-based, P. aeruginosa UCBPP-PA14; Δphz*; conditions: 10 μM PYO added, PYO-reductive conditions
Procedure: Electrochemical reactors and biofilm growth. Double-jacketed electrochemical reactors (Pine Instruments, 250 ml, wide center port 29/26) were used with ITO-coated 0.2 mm thick boro-aluminosilicate glass slides (Delta Technologies, 24×60 mm, Rs=7-10Ω) as working electrodes, freshly sanded graphite rods (Alfa Aesar) as counter electrodes, and Ag/AgCl in 3M KCl reference electrodes (BASi). Silver epoxy (Electron Microscopy Sciences) was used to make electrical connection between insulated wire ([…]) and working electrode and was insulated using 5 Minute® expoxy (Devcon). Working electrodes were assembled within 5 hours of use. Reactors were sterilized by autoclaving without reference or working electrodes, which were sterilized by submerging in 10% bleach for 5 minutes or 30 seconds, respectively, and rinsed in sterile water. Individual mid-log liquid cultures (OD600 0.45-0.55) were used to inoculate sterile reactors containing 140 ml of MM (described above) with 0.1% (vol/vol) for each biological replicate. Antibiotics were not added at this point. Working electrodes were poised at either open circuit, +100 mV, or −400 mV vs. Ag/AgCl (+310 mV and −190 mV vs the standard hydrogen electrode, respectively). Reactors were aerated using an aquarium pump with a 0.2 μm filter (Thermo Scientific) and heated to 31° C. using a circulating water bath (Haake A 25, Thermo Scientific). Fresh medium was exchanged every 24 hours for 5 days. After 5 days of aerobic growth, working electrode-attached biofilms were rinsed in sterile medium to remove planktonic cells and transferred to sterile reactors with fresh MM previously flushed for 2 hours with N2 ultra-high purity gas (NRL supply store). For antibiotic exposure experiments, antibiotics were added to sterile media before flushing with N2. […]
Biofilm harvesting and processing. […] SYTO-60 was excited with a 561 nm; 0.20% laser and emission was recorded from 580-700 nm. TOTO-1 was excited with a 488 nm; 0.20% laser and emission was recorded from 490 to 580 nm.

[7] = Square wave voltammograms of electrode-attached biofilms; type: physicochemical; conditions: acquired immediately after transfer to anoxic reactors
Procedure: FIG. 3: Electrochemical signal of wild type, Δphz*, and Δphz*+10 μM PYO showing PYO (E1/2=−250 mV vs Ag/AgCl) is the only redox active signal observed under these conditions and is retained by wild type biofilms. Square wave voltammograms acquired immediately after transfer to anoxic reactors.
Square Wave Voltammograms. Potential was scanned from +100 mV to −500 mV vs Ag/AgCl and in reverse with the following parameters: pulse height=50 mV, pulse width=66.6 ms, step height=−0.5 mV, and acquisition of the average current over the last 50% of each step. Square wave voltammograms were acquired immediately after transfer from oxic to anoxic conditions.

[8] = Midpoint potential E1/2 by voltammetry vs Ag/AgCl (3M KCl); type: physicochemical; conditions: for E1/2 (vs. Ag/AgCl (3M KCl))/mV: Example 15 table
Procedure: The purified redox-active molecule can be dissolved in aqueous solution at appropriate concentration in the presence of supporting electrolyte and buffer to select the pH of measurement. For example, the redox-active molecule can be dissolved in 10 μM-10 mM concentrations in distilled, deionized water (DDW). The supporting electrolyte can be a salt such as NaCl or KCl at 0.01-0.5 M concentrations, for example, dissolved in DDW. The buffer can be 10 mM ammonium acetate/3-(N-morpholino)propanesulfonic acid at pH 7, or phosphate-buffered saline (PBS) at pH 7.4, or sodium acetate buffer at pH 5, or di-sodium hydrogen phosphate/potassium dihydrogen phosphate at pH 9, or boric acid/citric acid/trisodium phosphate for a wide range of pH values, for example.
Voltammetric methods are then used to characterize the electrochemical behavior of the redox-active molecule in such solution, with a potentiostat such as a Gamry PC4-300, using a three-electrode setup with working electrode (glassy carbon, or platinum, or gold), counter electrode (platinum wire) and reference electrode (Ag/AgCl (3M KCl), or SCE, or NHE; values are reported relative to Ag/AgCl (3M KCl) which has potential +197 mV vs. NHE at 298K).
For example, cyclic voltammetry may be used. In a cyclic voltammetry experiment phenazines will show a peak on the cathodic sweep (denoted Epc) corresponding to the reduction of the redox molecule.
The reverse, anodic sweep will show a peak (denoted Epa) corresponding to the re-oxidation of the redox molecule. If the electrode reaction is diffusion-controlled and reversible, the cathodic and anodic peak currents will be equal in area, and the mid-point between these peaks may be taken as the formal reduction potential of the redox molecule under the experimental conditions used. This value can interchangeably be referred to as the “midpoint potential” or “mid-peak potential”, denoted E1/2.
PYO was purified from aerobic bacterial cultures and was dissolved in 0.1 M KCl aqueous solution buffered with 10 mM ammonium acetate-3-(N-morpholino)propanesulfonic acid (5 mM each, pH 7) to yield a stock solution concentration of 829 μM PYO. Electrochemical measurements were performed with a Gamry PC4-300 potentiostat. A stationary gold disk electrode (BASi) was used as the working electrode, an Ag/AgCl electrode (RE-51, BASi) as the reference, and a straight platinum wire (BASi) was the counter electrode. Scans were performed between 20 and 500 mV/s in the potential range of around E1/2 (+/−300 mV), at 298 K.
As described in en.wikipedia.org/wiki/Nernst_equation, the Nernst equation relates E1/2 measured at pH 7 to the E1/2 at a different pH by:
[formula] • where E1/2 is in V • h is the number of protons transferred in the electrochemical reaction • e is the number of electrons transferred in the electrochemical reaction

[9] = from Wang and Newman (2008), cited from earlier work
[10] = tested on: P. aeruginosa PA14 liquid cultures; test: Toxicity of reduced PYO to liquid-grown cells under anoxic conditions; type: cell-based; conditions: 1, 10, and 100 μM reduced PYO, 30 minutes, normalized to untreated
Procedure: FIG. 8: Toxicity of reduced PYO to liquid-grown cells. Exposure of mid-log aerobic P. aeruginosa PA14 liquid cultures to 1, 10, and 100 μM reduced PYO under anoxic conditions. Triplicate data shown normalized to untreated samples with line at mean.
Treatment of liquid cultures with reduced PYO. 100 μM PYO in MM was reduced electrochemically using a dual-chamber reactor with an cation exchange membrane (CMI-7000, Membranes International) to avoid re-oxidation of PYO at the counter electrode. […] chamber contained Ag/AgCl reference electrode, platinum mesh working electrode, and was flushed with N2; while […] chamber was oxic and contained platinum mesh counter electrode. PYO reduction was carried out by poising the working electrode at −400 mV vs. Ag/AgCl for 24 hours, past the point of 100% PYO reduction based on coulombic efficiency, and biochemical reactor was then transferred into the anaerobic chamber. Anoxic vials with pre-equilibrated MM and corresponding concentrations of reduced PYO were then treated with biochemical O2 scavenging system (10 mM glucose+375 nM glucose oxidase+750 nM catalase) for an hour before inoculation. Aerobic liquid cultures of P. aerughnosa in MM at mid-log (OD600=0.5) were spun down and resuspended in fresh media and used to inoculate assays with 10% (vol/vol). […]

CN(C)c1ccc2nc3ccc(=[N+](C)C)cc-3sc2c1 [Methylene blue (MB), Methylene blue]
E0' (vs. NHE) (mV) [1]: +11 mV | Support survival? [2]: No | # of Redox cycles over 7 days [2]: 3 | Reduction by PA14? [3]: Yes | E0' (vs. NHE) (mV) [4]: 0 mV

Cn1c2cccc(=O)c-2nc2ccccc21 [Pyocyanin (PYO), Pyocyanin]
Redox potentials E (mV) [5]: −34 mV | E0' (vs. NHE) (mV) [1]: −40^a mV | Support survival? [2]: Yes | # of Redox cycles over 7 days [2]: 31 | effect of PYO addition on Δphz* biofilm CFUs (in words) ([6]; listed as PYO): sensitized under PYO-reductive conditions | effect of PYO addition on Δphz* biofilm CFUs (in words) ([6]; listed as pyocyanin): re-sensitized | E1/2 vs Ag/AgCl in biofilm square wave voltammograms [7]: −250 mV | Reduction by PA14? [3]: Yes | E1/2 (vs. Ag/AgCl (3M KCl))/mV ([8]; pH 5): −128 mV | E1/2 estimated vs. Ag/AgCl (3M KCl) ([8]; pH 6, estimated): −178 mV | E1/2 (vs. Ag/AgCl (3M KCl))/mV ([8]; pH 6): −189 mV | E1/2 vs. Ag/AgCl (3M KCl) ([8]; pH 7, 298 K, 0.1 M KCl, gold disk working electrode): −237 mV | E1/2 vs. NHE ([8]; pH 7, 298 K, corrected to NHE by adding 197 mV): −40 mV | E1/2 (vs. Ag/AgCl (3M KCl))/mV ([8]; pH 7): −237 mV | E1/2 estimated by Nernst equation ([8]; pH 8, estimated from pH 7 value): −296 mV | E1/2 (vs. Ag/AgCl (3M KCl))/mV ([8]; pH 8): −300 mV | E1/2 (vs. Ag/AgCl (3M KCl))/mV ([9]; pH 5): −128 mV | E1/2 (vs. Ag/AgCl (3M KCl))/mV ([9]; pH 6): −189 mV | E1/2 (vs. Ag/AgCl (3M KCl))/mV ([9]; pH 7): −237 mV | E1/2 (vs. Ag/AgCl (3M KCl))/mV ([9]; pH 8): −300 mV

CN1c2ccccc2Nc2c(O)cccc21 [reduced PYO]
decrease in CFUs of liquid cultures [10]: two- to threefold decrease in CFUs

Reference: patent publication US20250058002A1, “ELECTROCHEMICAL INHIBITION OF REDOX ACTIVE BACTERIA AND RELATED DEVICES, METHODS AND SYSTEMS” (priority 2023, published 2025)
